Experimental data as given in publication PMC5908784, “Extracellular loops 2 and 3 of the calcitonin receptor selectively modify agonist binding and efficacy” (Biochemical Pharmacology, 2018).
Residue numbers refer to the chain shown, from its start. Where a SMILES comes first, the peptide text is derived from it. Bridges are numbered along the chain shown (N, C = ends).

Tests used:
Assay in all cases: Heterologous whole cell competition binding
Conditions in all cases: heterologous competition of 125I-sCT(8-32), whole cells, mean ± S.E.M., SEM
[1] = molecular target: T1, hCTR K366A (Homo sapiens, UniProt P30988, K366A)
T1 construct: c-Myc (N); expressed in transfected cells
T1 sequence (P30988 25-474 K366A): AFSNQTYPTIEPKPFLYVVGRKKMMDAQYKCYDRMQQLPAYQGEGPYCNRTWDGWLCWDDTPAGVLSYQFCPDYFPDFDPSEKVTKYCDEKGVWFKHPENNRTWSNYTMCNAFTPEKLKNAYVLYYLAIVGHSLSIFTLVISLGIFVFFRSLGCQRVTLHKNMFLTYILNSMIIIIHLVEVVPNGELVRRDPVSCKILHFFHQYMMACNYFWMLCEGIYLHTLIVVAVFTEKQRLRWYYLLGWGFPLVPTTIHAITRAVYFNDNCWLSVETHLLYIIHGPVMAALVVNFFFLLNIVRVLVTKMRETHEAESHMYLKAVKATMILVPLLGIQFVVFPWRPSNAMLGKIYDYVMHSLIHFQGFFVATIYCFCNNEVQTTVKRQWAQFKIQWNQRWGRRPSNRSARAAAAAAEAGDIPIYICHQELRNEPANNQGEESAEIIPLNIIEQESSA
Method: (§1) Following overnight incubation non-bound ligand was removed and radioactivity was determined using a gamma counter.
(§2) Data were corrected for radioligand occupancy using the Cheng-Prusoff equation in Prism; as such data are reported as pKi. Emax and EC50 were estimated from concentration-response curves using with a 3-parameter logistic equation in Prism (v7). These values are a composite of functional affinity, efficacy and stimulus response coupling. […] Significance was accepted at P < 0.05.

[2] = molecular target: T2, hCTR N365A (Homo sapiens, UniProt P30988, N365A)
T2 construct: c-Myc (N); expressed in transfected cells
T2 sequence (P30988 25-474 N365A): T1 sequence (P30988 25-474 K366A) with N341A, A342K
Method: as §1, §2

[3] = molecular target: T3, hCTR P360A (Homo sapiens, UniProt P30988, P360A)
T3 construct: expressed in transfected cells
T3 sequence (P30988 25-474 P360A): T1 sequence (P30988 25-474 K366A) with P336A, A342K
Method: as §1, §2

[4] = molecular target: T4, hCTR P363A (Homo sapiens, UniProt P30988, P363A)
T4 construct: expressed in transfected cells
T4 sequence (P30988 25-474 P363A): T1 sequence (P30988 25-474 K366A) with P339A, A342K
Method: as §1, §2

[5] = molecular target: T5, hCTR R281A (Homo sapiens, UniProt P30988, R281A)
T5 construct: expressed in transfected cells
T5 sequence (P30988 25-474 R281A): T1 sequence (P30988 25-474 K366A) with R257A, A342K
Method: as §1, §2

`CSCC[C@H](NC(=O)CNC(=O)[C@H](CO)NC(=O)[C@H](Cc1ccccc1)NC(=O)[C@H](CCCNC(=N)N)NC(=O)[C@H](Cc1c[nH]cn1)NC(=O)[C@H](Cc1ccccc1)NC(=O)[C@H](CC(N)=O)NC(=O)[C@H](CC(N)=O)NC(=O)[C@H](CC(C)C)NC(=O)[C@H](CC(N)=O)NC(=O)[C@H](CCCNC(=N)N)NC(=O)[C@H](Cc1c[nH]c2ccccc12)NC(=O)[C@H](Cc1ccc(O)cc1)NC(=O)[C@H](C)NC(=O)[C@H](CO)NC(=O)[C@H](CC(C)C)NC(=O)[C@@H](NC(=O)[C@@H]1CSSC[C@H](N)C(=O)N[C@@H](CO)C(=O)N[C@@H](CC(N)=O)C(=O)N[C@@H](CC(C)C)C(=O)N[C@@H](CO)C(=O)N[C@@H]([C@@H](C)O)C(=O)N1)C(C)C)C(=O)NCC(=O)N[C@@H](Cc1ccccc1)C(=O)NCC(=O)N1CCC[C@H]1C(=O)N[C@@H](CCC(=O)O)C(=O)N[C@H](C(=O)N1CCC[C@H]1C(N)=O)[C@@H](C)O` [pCT] (H-CSNLSTCVLSAYWRNLNNFHRFSGMGFGPETP-NH2; disulfide 1-7) showed a Ki [1] of 11 nM, a Ki [2] of 2.09 nM and a Ki [3] of 50.1 nM. It also gave a Ki [4] of 55 nM and a Ki [5] of 66.1 nM.
